Assay results reported in patent publication US20260374782A1, “NEW COMPOUNDS, PROCESSES FOR PREPARING THE SAME AND THEIR USE AS DRUGS” (B&A ONCOMEDICAL, priority 2022, published 2026).

Target: T1, NKCC1 (Homo sapiens, UniProt P55011)
T1 construct: endogenous in cells; host or cells: native HEK293 cells
T1 sequence (P55011 1-1212): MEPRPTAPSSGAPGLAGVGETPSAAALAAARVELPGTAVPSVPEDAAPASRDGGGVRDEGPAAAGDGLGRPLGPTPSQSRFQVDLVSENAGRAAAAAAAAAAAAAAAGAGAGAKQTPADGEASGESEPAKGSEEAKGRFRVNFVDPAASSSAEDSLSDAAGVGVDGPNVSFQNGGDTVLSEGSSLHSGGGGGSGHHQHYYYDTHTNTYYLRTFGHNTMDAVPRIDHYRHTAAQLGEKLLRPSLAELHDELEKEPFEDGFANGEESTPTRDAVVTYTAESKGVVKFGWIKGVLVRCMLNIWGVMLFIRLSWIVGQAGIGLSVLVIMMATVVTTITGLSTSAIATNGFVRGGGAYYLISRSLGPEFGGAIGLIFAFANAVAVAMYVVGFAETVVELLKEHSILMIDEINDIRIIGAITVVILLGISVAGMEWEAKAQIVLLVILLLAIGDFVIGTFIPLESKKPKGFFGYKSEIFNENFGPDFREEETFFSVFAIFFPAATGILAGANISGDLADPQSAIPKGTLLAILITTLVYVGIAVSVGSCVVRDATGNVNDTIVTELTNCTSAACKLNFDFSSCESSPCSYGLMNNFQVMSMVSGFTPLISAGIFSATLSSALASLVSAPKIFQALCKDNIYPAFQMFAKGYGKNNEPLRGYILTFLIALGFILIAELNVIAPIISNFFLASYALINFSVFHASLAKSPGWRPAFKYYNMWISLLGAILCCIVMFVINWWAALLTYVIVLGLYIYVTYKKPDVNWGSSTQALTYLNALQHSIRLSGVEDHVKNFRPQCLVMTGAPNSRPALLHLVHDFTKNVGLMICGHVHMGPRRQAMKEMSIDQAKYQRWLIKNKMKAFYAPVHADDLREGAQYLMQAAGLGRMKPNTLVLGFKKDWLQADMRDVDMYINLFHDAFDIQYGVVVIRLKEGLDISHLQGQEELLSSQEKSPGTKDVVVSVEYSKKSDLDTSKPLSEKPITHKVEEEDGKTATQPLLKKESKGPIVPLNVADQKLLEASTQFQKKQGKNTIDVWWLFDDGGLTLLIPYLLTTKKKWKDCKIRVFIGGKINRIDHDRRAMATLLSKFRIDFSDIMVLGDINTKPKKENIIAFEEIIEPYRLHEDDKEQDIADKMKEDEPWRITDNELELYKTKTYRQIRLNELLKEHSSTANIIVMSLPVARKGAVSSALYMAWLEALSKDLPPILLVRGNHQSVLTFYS
Assay: NKCC1-mediated K+ influx (83Rb tracer uptake) in native HEK293 cells, hypertonic saline, 100 μM ouabain
Type: cell-based
Settings: HEK293, no drug = 1000, 20 μM bumetanide = 0; for inhibition at 20 µM: read-out: NKCC1 mediated flux inhibition at 20 μM (%); for inhibition at 2 µM: read-out: NKCC1 mediated flux inhibition at 2 μM (%)
Excerpt: The compounds of the invention have been tested for evaluating their potency in inhibiting the NKCC1 channel. The test used is a cellular assay expressing the NKCC1 channel: HEK293 cells are human cells derived from embryonic kidney. The inhibitory activity of the compounds has been evaluated in measuring the modification of the potassium flux at 2 concentrations, as described hereafter in the biological protocol.
HEK293 cells are human cells derived from embryonic kidney. They express at their plasma membranes proteins that transport potassium (K^+). Among these proteins is the Na—K-2Cl cotransporter or NKCC1. This transporter contributes to 40-50% of K^+ influx into the cells. The remaining of K^+ transport is mediated by the Na^+/K^+-ATPase (also known as Na^+ pump or Na^+/K^+ pump), which also contributes some 40-50% of the influx basal flux of 5-10%, which is mainly due to K^+ channels (FIG. 1A). Thus, the HEK293 cell in culture is an ideal model to study the function of NKCC1 and test compounds that inhibits its transport.
The assay to measure NKCC1 function was optimized to obtain the next signal to noise ratio: • a. A slightly hypertonic saline was used to stimulate NKCC1 function. […] By consistent use of this simple manipulation, the NKCC1 signal was enhanced. • b. Ouabain, an inhibitor of the Na^+/K^+ pump, was used at 100 μM. […] A radioactive isotope was used to trace the inward movement of K^+ into the cell (influx). This allowed for highly precise measurements of K^+ influx. Because radioactive isotopes of K^+ had very short half-lives, radioactive isotopes of Rb^+ were used. Rubidium was a monovalent cation which was readily transporter at the K^+ binding site by many transporters and channels. Rb^+ was a congener of K^+, being transported undistinguishably from K^+. ^83Rb (half-life of 83 days) was used since ^86Rb (half-life of 19.6 days) is no longer commercially available. The ^83Rb isotope was used as a tracer, i.e. at a very low amounts to trace the movement of K^+.
K^+ influx measured in native HEK293 was in the range of 7000-9000 pmoles K^+ per mg protein per min. In the presence of 20 μM Ref 1, the flux was reduced to 600-900 pmoles K^+ per mg protein per min. Thus, there was a very solid dynamic range. In each experiment, the flux without Ref 1 was set at 1000 (equivalent to 100.0%) and the flux with 20 μM bumetanide was set at 0 (equivalent to 0%).
For the flux experiments, 35-mm culture dishes were coated with 0.1 mg/mL poly-L-lysine and placed in large 20×20 [square] dishes. For convenience, the poly-L-lysine was placed in the dishes the day before the experiment. Before plating the cells, the poly-L-lysine was aspirated, and each dish washed twice with 1 mL sterile water. Cells from 3 confluent 10-cm dishes were detached with trypsin and resuspended into 49 mL complete medium. Cells (2 mL/35-mm dish) were plated in 24 dishes and allowed to attach for at least 2 hours prior to the flux. This setup allowed the measurement of 8 conditions in triplicates. For the flux, culture medium was aspirated and replaced with 1 mL saline for a preincubation period of 15 min. The saline was aspirated and replaced with 1 mL identical saline containing 0.25 μCi/mL 83Rb for 15 min. Following the uptake period, the radioactive solution was aspirated, and the cells washed 3 times with ice-cold saline. Cells were then lyzed with 500 μl 0.25N NaOH for 1 hour, neutralized with 250 μL glacial acetic acid and 300 μL and 30 μL aliquots were used for μ-scintillation counting and protein assays, respectively. Two 5 μL of each flux solution was used to determine cpm and relate those cpm to nmoles K^+. Potassium influx was expressed in nmoles K^+ per mg protein per min. Note that within an experiment, groups of 3 dishes were separated 2 min apart for easy handling. Also note that since all dishes were plated with a homogeneous cell suspension, and all dishes were identical, the protein content was measured from a subset of dishes. […]

Row | Compound | inhibition at 20 µM | inhibition at 2 µM
1 | CCCCNc1cc(C(=O)OC)cc(S(=N)(=O)N(C)CC)c1Oc1ccccc1 (stereo not drawn) [Compound 5, methyl 3-(butylamino)-5-[[ethyl(methyl)amino]sulfonimidoyl]-4-phenoxy-benzoate] | 50 to 75% | –
2 | CCCCNc1cc(C(=O)OC)cc(S(=N)(=O)N2CCOCC2)c1Oc1ccccc1 (stereo not drawn) [Compound 6, methyl 3-(butylamino)-5-(morpholinosulfonimidoyl)-4-phenoxy-benzoate] | 30 to 50% | 10 to 30%
3 | CCCCNc1cc(C(=O)OC)cc(S(=N)(=O)Nc2ccccc2)c1Oc1ccccc1 (stereo not drawn) [Compound 7, methyl 3-(anilinosulfonimidoyl)-5-(butylamino)-4-phenoxy-benzoate] | 50 to 75% | 10 to 30%
4 | CCCCNc1cc(C(=O)OC)cc(S(=N)(=O)NCc2ccccc2)c1Oc1ccccc1 (stereo not drawn) [Compound 8, methyl 3-[(benzylamino)sulfonimidoyl]-5-(butylamino)-4-phenoxy-benzoate] | 50 to 75% | 10 to 30%
5 | CCCCNc1cc(C(=O)OC)cc(S(=N)(=O)NCCOC)c1Oc1ccccc1 (stereo not drawn) [Compound 9, methyl 3-(butylamino)-5-[(2-methoxyethylamino)sulfonimidoyl]-4-phenoxy-benzoate] | 10 to 30% | –
6 | CCCCNc1cc(C(=O)OC)cc(S(=N)(=O)NC2CC2)c1Oc1ccccc1 (stereo not drawn) [Compound 10, methyl 3-(butylamino)-5-[(cyclopropylamino)sulfonimidoyl]-4-phenoxy-benzoate] | 10 to 30% | –
7 | CCCCNc1cc(C(=O)OC)cc(S(=N)(=O)N2CCCCCC2)c1Oc1ccccc1 (stereo not drawn) [Compound 11, methyl 3-(azepan-1-ylsulfonimidoyl)-5-(butylamino)-4-phenoxy-benzoate] | 50 to 75% | –
8 | CCCCNc1cc(C(=O)OC)cc(S(=N)(=O)NCC2CCCCC2)c1Oc1ccccc1 (stereo not drawn) [Compound 12, methyl 3-(butylamino)-5-[(cyclohexylmethylamino)sulfonimidoyl]-4-phenoxy-benzoate] | 30 to 50% | 10 to 30%
9 | CCCCNc1cc(C(=O)OC)cc(S(=N)(=O)NCC2CCOCC2)c1Oc1ccccc1 (stereo not drawn) [Compound 13, methyl 3-(butylamino)-4-phenoxy-5-[(tetrahydropyran-4-ylmethylamino)sulfonimidoyl]benzoate] | 10 to 30% | –
10 | CCCCNc1cc(C(=O)OC)cc(S(=N)(=O)N(C)c2ccccc2)c1Oc1ccccc1 (stereo not drawn) [Compound 14, methyl 3-(butylamino)-5-[(N-methylanilino)sulfonimidoyl]-4-phenoxy-benzoate] | 10 to 30% | 10 to 30%
11 | CCCCNc1cc(C(=O)OC)cc(S(=N)(=O)NCc2cncnc2)c1Oc1ccccc1 (stereo not drawn) [Compound 15, methyl 3-(butylamino)-4-phenoxy-5-[(pyrimidin-5-ylmethylamino)sulfonimidoyl]benzoate] | 30 to 50% | 30 to 50%
12 | CCCCNc1cc(C(=O)OC)cc(S(=N)(=O)Nc2cccnc2)c1Oc1ccccc1 (stereo not drawn) [Compound 16, methyl 3-(butylamino)-4-phenoxy-5-[(3-pyridylamino)sulfonimidoyl]benzoate] | 10 to 30% | 30 to 50%
13 | CCCCNc1cc(C(=O)OC)cc(S(=N)(=O)Nc2cccc(OC)c2)c1Oc1ccccc1 (stereo not drawn) [Compound 17, methyl 3-(butylamino)-5-[(3-methoxyanilino)sulfonimidoyl]-4-phenoxy-benzoate] | 30 to 50% | 10 to 30%
14 | CCCCNc1cc(C(=O)OC)cc(S(=N)(=O)N2CCC(c3ccccc3)CC2)c1Oc1ccccc1 (stereo not drawn) [Compound 18, methyl 3-(butylamino)-4-phenoxy-5-[(4-phenyl-1-piperidyl)sulfonimidoyl]benzoate] | 10 to 30% | 30 to 50%
15 | CCCCNc1cc(C(=O)OC)cc(S(=N)(=O)N2CCc3ccccc32)c1Oc1ccccc1 (stereo not drawn) [Compound 19, methyl 3-(butylamino)-5-(indolin-1-ylsulfonimidoyl)-4-phenoxy-benzoate] | 10 to 30% | 30 to 50%
16 | CCCCNc1cc(C(=O)OC)cc(S(=N)(=O)N2CC3CCC(C2)O3)c1Oc1ccccc1 (stereo not drawn) [Compound 20, methyl 3-(butylamino)-5-(8-oxa-3-azabicyclo[3.2.1]octan-3-ylsulfonimidoyl)-4-phenoxy-benzoate] | 10 to 30% | –
17 | CCCCNc1cc(C(=O)OC)cc(S(=N)(=O)Nc2ccn(C)n2)c1Oc1ccccc1 (stereo not drawn) [Compound 21, methyl 3-(butylamino)-5-[[(1-methylpyrazol-3-yl)amino]sulfonimidoyl]-4-phenoxy-benzoate] | 30 to 50% | 10 to 30%
18 | CCCCNc1cc(C(=O)OC)cc(S(=N)(=O)Nc2cccc(Cl)c2)c1Oc1ccccc1 (stereo not drawn) [Compound 22, methyl 3-(butylamino)-5-[(3-chloroanilino)sulfonimidoyl]-4-phenoxy-benzoate] | 30 to 50% | 30 to 50%
19 | CCCCNc1cc(C(=O)OC)cc(S(=N)(=O)NCc2cccc(Cl)c2)c1Oc1ccccc1 (stereo not drawn) [Compound 23, methyl 3-(butylamino)-5-[[(3-chlorophenyl)methylamino]sulfonimidoyl]-4-phenoxy-benzoate] | 10 to 30% | 30 to 50%
20 | CCCCNc1cc(C(=O)OC)cc(S(=N)(=O)N2Cc3ccccc3C2)c1Oc1ccccc1 (stereo not drawn) [Compound 24, methyl 3-(butylamino)-5-(isoindolin-2-ylsulfonimidoyl)-4-phenoxy-benzoate] | 30 to 50% | 10 to 30%
21 | CCCCNc1cc(C(=O)OC)cc(S(=N)(N)=O)c1Oc1ccccc1 (stereo not drawn) [Compound 25, methyl 3-(aminosulfonimidoyl)-5-(butylamino)-4-phenoxy-benzoate] | 30 to 50% | 30 to 50%
